In paper PMC5216056 (Nature Communications, 2017):
Read-outs that look alike come from different tables or passages of the source.

Tests used:
hCB2R [1] = target: T1, hCB2R (Homo sapiens, UniProt P34972); assay: cell-based; format: cell-based; design: expressed in transfected cells; host or cells: Flp-In-293 (Invitrogen #R750-07), pcDNA5/FRT
alpha 1A (h) = target: T2, alpha 1A (h) (Homo sapiens, UniProt P35348); assay: CEREP panel; format: binding; details: 10 µM
T2 construct: CEREP
T2 sequence (P35348 1-466): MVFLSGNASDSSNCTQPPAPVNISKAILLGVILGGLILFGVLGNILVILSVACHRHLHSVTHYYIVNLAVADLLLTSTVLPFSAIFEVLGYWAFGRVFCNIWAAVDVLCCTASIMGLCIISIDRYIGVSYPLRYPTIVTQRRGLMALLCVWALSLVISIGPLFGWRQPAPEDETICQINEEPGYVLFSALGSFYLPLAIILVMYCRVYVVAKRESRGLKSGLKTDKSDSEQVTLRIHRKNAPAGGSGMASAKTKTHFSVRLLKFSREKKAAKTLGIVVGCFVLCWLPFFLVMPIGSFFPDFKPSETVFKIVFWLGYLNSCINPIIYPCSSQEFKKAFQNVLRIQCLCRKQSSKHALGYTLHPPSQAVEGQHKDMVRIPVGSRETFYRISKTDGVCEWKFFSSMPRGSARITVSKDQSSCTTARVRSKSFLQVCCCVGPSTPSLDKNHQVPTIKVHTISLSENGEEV

[2] = 1 μM
hCB2R [3] = target: T1, hCB2R; design: expressed in transfected cells; host or cells: Flp-In-293 (Invitrogen #R750-07), pcDNA5/FRT
hCB1R [4] = target: T3, hCB1R (Homo sapiens, UniProt P21554); assay: cell-based; format: cell-based
T3 construct: host or cells: CHO

A1 (h) = target: T4, A1 (h) (Homo sapiens, UniProt P30542); assay: CEREP panel; format: binding; details: 10 µM
T4 construct: CEREP
T4 sequence (P30542 1-326): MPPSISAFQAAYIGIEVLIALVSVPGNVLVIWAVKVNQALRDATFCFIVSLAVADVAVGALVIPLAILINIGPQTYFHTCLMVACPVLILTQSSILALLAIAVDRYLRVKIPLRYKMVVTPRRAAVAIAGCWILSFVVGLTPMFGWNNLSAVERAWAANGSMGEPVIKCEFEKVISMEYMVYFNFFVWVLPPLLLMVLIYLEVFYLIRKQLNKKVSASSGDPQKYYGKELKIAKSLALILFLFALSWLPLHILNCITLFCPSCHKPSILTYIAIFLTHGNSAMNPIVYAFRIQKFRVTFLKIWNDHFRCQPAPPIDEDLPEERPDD

hCB2R [5] = target: T1, hCB2R; assay: biochemical; format: biochemical; design: expressed in transfected cells; host or cells: Flp-In-293 (Invitrogen #R750-07), pcDNA5/FRT
hCB2R [6] = target: T1, hCB2R; assay: biochemical; format: binding
[7] = system: AEA cellular uptake in HMC-1 cells; assay: cells; format: cell-based, human; details: read-out: AEA reuptake IC50 (95% CI) HMC-1 cells; FAAH-deficient cells
[8] = system: AEA cellular uptake in U937 cells; assay: cells; format: cell-based, human
hCB1R [9] = target: T3, hCB1R; assay: biochemical; format: biochemical
hGPR55 = target: T5, hGPR55 (Homo sapiens, UniProt Q9Y2T6); assay: cell-based; details: β-arrestin recruitment
T5 construct: host or cells: CHO-K1 (PathHunter hGPR55_bgal)

BZD (central) = format: binding; details: 10 µM

T5 sequence (Q9Y2T6 whole entry): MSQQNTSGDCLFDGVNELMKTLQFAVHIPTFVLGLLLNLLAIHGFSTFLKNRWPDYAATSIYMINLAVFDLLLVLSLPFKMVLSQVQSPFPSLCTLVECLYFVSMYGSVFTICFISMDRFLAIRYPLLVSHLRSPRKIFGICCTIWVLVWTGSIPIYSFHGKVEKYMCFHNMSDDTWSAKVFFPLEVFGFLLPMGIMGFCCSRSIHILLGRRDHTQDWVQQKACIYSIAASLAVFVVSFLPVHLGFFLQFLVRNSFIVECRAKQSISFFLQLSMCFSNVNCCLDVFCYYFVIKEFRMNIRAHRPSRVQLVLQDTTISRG
T3 sequence (P21554 whole entry): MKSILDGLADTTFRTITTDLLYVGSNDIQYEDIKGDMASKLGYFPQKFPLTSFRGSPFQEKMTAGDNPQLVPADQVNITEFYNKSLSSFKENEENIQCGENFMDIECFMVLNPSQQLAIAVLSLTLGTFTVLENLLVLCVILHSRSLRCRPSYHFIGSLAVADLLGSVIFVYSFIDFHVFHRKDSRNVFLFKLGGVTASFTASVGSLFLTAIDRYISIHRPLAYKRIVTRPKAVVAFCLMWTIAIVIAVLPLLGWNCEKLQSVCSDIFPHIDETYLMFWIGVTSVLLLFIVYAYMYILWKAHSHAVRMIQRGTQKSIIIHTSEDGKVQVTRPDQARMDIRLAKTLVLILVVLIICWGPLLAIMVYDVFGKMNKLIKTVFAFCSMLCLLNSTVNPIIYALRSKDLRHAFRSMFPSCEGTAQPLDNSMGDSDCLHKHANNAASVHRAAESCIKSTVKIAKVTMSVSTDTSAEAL
T1 sequence (P34972 whole entry): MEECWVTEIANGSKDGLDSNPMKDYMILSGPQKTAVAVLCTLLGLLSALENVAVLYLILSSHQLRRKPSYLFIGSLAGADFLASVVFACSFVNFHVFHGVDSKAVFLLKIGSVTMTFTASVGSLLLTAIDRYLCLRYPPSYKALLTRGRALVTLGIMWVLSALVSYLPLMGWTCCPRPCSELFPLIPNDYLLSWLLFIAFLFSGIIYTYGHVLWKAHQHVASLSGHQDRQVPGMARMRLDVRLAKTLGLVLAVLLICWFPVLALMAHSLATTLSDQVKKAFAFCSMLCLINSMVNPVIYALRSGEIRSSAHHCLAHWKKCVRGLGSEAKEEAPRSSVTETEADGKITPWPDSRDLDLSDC

CCCCCCC(C)(C)c1cc(OC)c(C2=C[C@H]3CC[C@]2(CO)C3(C)C)c(OC)c1 [HU910]
Emax ± SEM GIRK hCB2R (hCB2R [1]; normalized to CP55940): 74 ± 2%
% inhibition alpha 1A (h) (alpha 1A (h)): 1%
CL hepatocytes human [2]: 9.2 µL/min/mio cells
GIRK-GTPγS bias factor (BF) (hCB2R [3]; hCB2R): 0.31
GIRK-GTPγS ΔΔlogR (hCB2R [3]; hCB2R): -0.51
GIRK-cAMP bias factor (BF) (hCB2R [3]; hCB2R): 2.42
GIRK-cAMP ΔΔlogR (hCB2R [3]; hCB2R): 0.38 ± 0.20
GTPγS-cAMP bias factor (BF) (hCB2R [3]; hCB2R): 7.73
GTPγS-cAMP ΔΔlogR (hCB2R [3]; hCB2R): 0.89 ± 0.31
LogR GIRK (hCB2R [3]; hCB2R): 5.90
LogR GTPγS (hCB2R [3]; hCB2R): 6.82
LogR cAMP (hCB2R [3]; hCB2R): 8.37
LogR pERK (hCB2R [3]; hCB2R): 6.94
LogR β-AR (hCB2R [3]; hCB2R): 7.72
pERK-GIRK bias factor (BF) (hCB2R [3]; hCB2R): 0.73
pERK-GIRK ΔΔlogR (hCB2R [3]; hCB2R): -0.13
pERK-GTPγS bias factor (BF) (hCB2R [3]; hCB2R): 0.23
pERK-GTPγS ΔΔlogR (hCB2R [3]; hCB2R): -0.64
pERK-cAMP bias factor (BF) (hCB2R [3]; hCB2R): 1.77
pERK-cAMP ΔΔlogR (hCB2R [3]; hCB2R): 0.25 ± 0.28
β-AR-GIRK bias factor (BF) (hCB2R [3]; hCB2R): 15.07
β-AR-GIRK ΔΔlogR (hCB2R [3]; hCB2R): 1.18 ± 0.22
β-AR-GTPγS bias factor (BF) (hCB2R [3]; hCB2R): 4.71
β-AR-GTPγS ΔΔlogR (hCB2R [3]; hCB2R): 0.67 ± 0.32
β-AR-cAMP bias factor (BF) (hCB2R [3]; hCB2R): 36.90
β-AR-cAMP ΔΔlogR (hCB2R [3]; hCB2R): 1.57 ± 0.15
β-AR-pERK bias factor (BF) (hCB2R [3]; hCB2R): 20.56
β-AR-pERK ΔΔlogR (hCB2R [3]; hCB2R): 1.31 ± 0.29
ΔLogR GIRK (hCB2R [3]; hCB2R, reference CP55940): -1.96
ΔLogR GTPγS (hCB2R [3]; hCB2R, reference CP55940): -1.46
ΔLogR cAMP (hCB2R [3]; hCB2R, reference CP55940): -2.35
ΔLogR pERK (hCB2R [3]; hCB2R, reference CP55940): -2.1
ΔLogR β-AR (hCB2R [3]; hCB2R, reference CP55940): -0.78
RE GIRK (hCB2R [3]; hCB2R, relative effectiveness): 0.01
RE GTPγS (hCB2R [3]; hCB2R, relative effectiveness): 0.03
RE cAMP (hCB2R [3]; hCB2R, relative effectiveness): 0.005
RE pERK (hCB2R [3]; hCB2R, relative effectiveness): 0.01
RE β-AR (hCB2R [3]; hCB2R, relative effectiveness): 0.16
Emax ± SEM pERK hCB1R (hCB1R [4]): 12 ± 4
pEC50 ± SEM pERK hCB1R (hCB1R [4]): < 4
% inhibition A1 (h) (A1 (h)): 23%
pEC50 ± SEM GTPγS hCB2R (hCB2R [5]): 7.27 ± 0.12
Emax ± SEM GTPγS hCB2R (hCB2R [5]; normalized to 10 µM CP55940, negative = inverse agonism): 61 ± 13%
pKi ± SEM hCB2R (hCB2R [6]; CHO membranes, Leiden, HU210 and SR144528 from Roche): 7.22 ± 0.31
IC50 [7]: > 5000 nM
AEA reuptake Efficacy (% inhibition) U937 cells ([8]; from dose-response): 70%
IC50 ([8]; read-out: AEA reuptake IC50 (95% CI) U937 cells): 1560 nM
pEC50 ± SEM GTPγS hCB1R (hCB1R [9]): < 5
GPR55 Emax ± SEM (%) or % effect at 10 µM (hGPR55): -10 ± 3%
GPR55 pEC50 (± SEM) (hGPR55): < 5
% inhibition BZD (central) (BZD (central)): 0%

CCCC(C)(C)c1ccc2c(c1)OC(C)(C)[C@@H]1CC=C(C)C[C@@H]21 [JWH133]
Emax ± SEM GIRK hCB2R (hCB2R [1]): 31 ± 12
pEC50 ± SEM GIRK hCB2R (hCB2R [1]): < 5
% inhibition alpha 1A (h) (alpha 1A (h)): -5%
CL hepatocytes human [2]: 5.6 µL/min/mio cells
GIRK-GTPγS bias factor (BF) (hCB2R [3]): 1.32
GIRK-GTPγS ΔΔlogR (hCB2R [3]): 0.12 ± 0.57
GIRK-cAMP bias factor (BF) (hCB2R [3]): 3.54
GIRK-cAMP ΔΔlogR (hCB2R [3]): 0.55 ± 0.42
GTPγS-cAMP bias factor (BF) (hCB2R [3]): 2.67
GTPγS-cAMP ΔΔlogR (hCB2R [3]): 0.43 ± 0.40
LogR GIRK (hCB2R [3]): 5.98
LogR GTPγS (hCB2R [3]): 6.27
LogR cAMP (hCB2R [3]): 8.28
LogR pERK (hCB2R [3]): 7.07
LogR β-AR (hCB2R [3]): 8.02
RE GIRK (hCB2R [3]): 0.01
RE GTPγS (hCB2R [3]): 0.01
RE cAMP (hCB2R [3]): 0.004
RE pERK (hCB2R [3]): 0.01
RE β-AR (hCB2R [3]): 0.33
pERK-GIRK bias factor (BF) (hCB2R [3]): 0.84
pERK-GIRK ΔΔlogR (hCB2R [3]): -0.08
pERK-GTPγS bias factor (BF) (hCB2R [3]): 1.11
pERK-GTPγS ΔΔlogR (hCB2R [3]): 0.05 ± 0.46
pERK-cAMP bias factor (BF) (hCB2R [3]): 2.97
pERK-cAMP ΔΔlogR (hCB2R [3]): 0.47 ± 0.26
ΔLogR GIRK (hCB2R [3]): -1.89
ΔLogR GTPγS (hCB2R [3]): -2.01
ΔLogR cAMP (hCB2R [3]): -2.44
ΔLogR pERK (hCB2R [3]): -1.96
ΔLogR β-AR (hCB2R [3]): -0.48
β-AR-GIRK bias factor (BF) (hCB2R [3]): 25.53
β-AR-GIRK ΔΔlogR (hCB2R [3]): 1.41 ± 0.43
β-AR-GTPγS bias factor (BF) (hCB2R [3]): 33.81
β-AR-GTPγS ΔΔlogR (hCB2R [3]): 1.53 ± 0.41
β-AR-cAMP bias factor (BF) (hCB2R [3]): 90.36
β-AR-cAMP ΔΔlogR (hCB2R [3]): 1.96 ± 0.15
β-AR-pERK bias factor (BF) (hCB2R [3]): 30.41
β-AR-pERK ΔΔlogR (hCB2R [3]): 1.48 ± 0.27
Emax ± SEM pERK hCB1R (hCB1R [4]): 10 ± 3
pEC50 ± SEM pERK hCB1R (hCB1R [4]): < 4
% inhibition A1 (h) (A1 (h)): -6%
Emax ± SEM GTPγS hCB2R (hCB2R [5]): 61 ± 15
hCB2R Selectivity GTPγS (hCB2R [5]): 0.4
pEC50 ± SEM GTPγS hCB2R (hCB2R [5]): 6.96 ± 0.35
CB2R Selectivity (binding, human) (hCB2R [6]): 153 fold
pKi ± SEM hCB2R (hCB2R [6]): 7.18 ± 0.34
Emax ± SEM GTPγS hCB1R (hCB1R [9]): 20%
pEC50 ± SEM GTPγS hCB1R (hCB1R [9]): 7.37 ± 0.16
GPR55 Emax ± SEM (%) or % effect at 10 µM (hGPR55): -2 ± 3%
GPR55 pEC50 (± SEM) (hGPR55): < 5
% inhibition BZD (central) (BZD (central)): -22%
